# From ChEMBL document CHEMBL5442663, “ASAP - Solubility” (2024)
# Test: Kinetic solubility of compound by measuring concentration at pH 7.4 in saturated PBS buffer by UV LCMS/MS using calibration curves. The assay has been performed by Enamine biological services, Bienta Ltd.The protocol is publicly available: dx.doi.org/10.17504/protocols.io.j8nlk8y41l5r/v1
# Assay type: physicochemical
# Settings: PBS buffer
row,solubility kinetic,SMILES
1,372 µM,CC(C)(C)[C@H](Nc1ncnc2[nH]c(-c3cnn(CC(N)=O)c3)cc12)c1ccc2c(n1)OCCO2
2,336 µM,CNC(=O)c1c[nH]c2ncnc(N[C@H](c3ccc4c(c3)S(=O)(=O)CCC4)C(C)C)c12
3,361 µM,CC(C)[C@H](Nc1ncnc2[nH]c(-c3cnn(CC(=O)N(C)C)c3)cc12)c1ccc2c(c1)S(=O)(=O)CCC2
